Publication PMC3257202, “Xylan oligosaccharides and cellobiohydrolase I (TrCel7A) interaction and effect on activity” (Biotechnology for Biofuels, 2011)

Assays:
[1] = target: T1, TrCel7A core (Trichoderma reesei, UniProt P62694); experiment: isothermal titration calorimetry; conditions: 30°C, binding constant on a molar concentration scale (unit not given)
T1 construct: gene cbh1; GH7 catalytic domain only, first 436 residues after the 17-residue signal peptide; linker and C-terminal family 1 CBM removed; recombinant from Aspergillus oryzae, purified
T1 sequence (P62694 18-453): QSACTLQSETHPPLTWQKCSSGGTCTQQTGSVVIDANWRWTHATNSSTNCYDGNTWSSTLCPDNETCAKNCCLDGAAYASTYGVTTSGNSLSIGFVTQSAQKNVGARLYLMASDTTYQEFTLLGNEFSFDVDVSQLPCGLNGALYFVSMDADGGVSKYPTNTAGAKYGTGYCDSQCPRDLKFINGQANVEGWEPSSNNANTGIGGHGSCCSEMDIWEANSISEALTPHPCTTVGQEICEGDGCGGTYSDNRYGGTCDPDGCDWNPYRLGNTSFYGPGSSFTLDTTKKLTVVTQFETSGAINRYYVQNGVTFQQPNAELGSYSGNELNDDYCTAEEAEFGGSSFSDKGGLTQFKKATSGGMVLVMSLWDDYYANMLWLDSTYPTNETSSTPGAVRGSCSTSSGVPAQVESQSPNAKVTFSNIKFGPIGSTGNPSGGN
From the text: isothermal titration calorimetry on TrCel7A core

[2] = target: T2, TrCel7A (Trichoderma reesei, UniProt P62694); experiment: isothermal titration calorimetry; conditions: 30°C; binding constant on a molar concentration scale (unit not given)
T2 construct: gene cbh1; full-length secreted enzyme (GH7 catalytic domain, glycosylated linker, family 1 CBM), 17-residue signal peptide removed, 52 kDa; recombinant from Aspergillus oryzae, purified
T2 sequence (P62694 18-513): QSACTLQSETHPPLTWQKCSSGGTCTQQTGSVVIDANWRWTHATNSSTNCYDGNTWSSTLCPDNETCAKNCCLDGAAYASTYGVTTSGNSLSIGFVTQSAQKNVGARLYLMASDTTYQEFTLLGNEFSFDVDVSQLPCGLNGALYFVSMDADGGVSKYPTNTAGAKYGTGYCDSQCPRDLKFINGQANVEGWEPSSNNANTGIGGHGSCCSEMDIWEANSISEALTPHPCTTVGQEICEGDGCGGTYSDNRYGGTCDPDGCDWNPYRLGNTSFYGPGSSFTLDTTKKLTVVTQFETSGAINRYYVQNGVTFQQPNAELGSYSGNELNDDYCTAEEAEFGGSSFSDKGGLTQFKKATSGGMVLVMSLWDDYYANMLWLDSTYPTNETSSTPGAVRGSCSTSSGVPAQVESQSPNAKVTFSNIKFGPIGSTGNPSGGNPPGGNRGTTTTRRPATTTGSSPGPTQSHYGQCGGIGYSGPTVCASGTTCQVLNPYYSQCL
From the text: isothermal titration calorimetry on TrCel7A

| Molecule | TrCel7A core (K) [1] | TrCel7A (K) [2] | TrCel7A core (K) ([1]; compound identity contradictory in print (name hexaose, formula (xyl)5)) |
| --- | --- | --- | --- |
| OC1OC[C@@H](O[C@@H]2OC[C@@H](O[C@@H]3OC[C@@H](O[C@@H]4OC[C@@H](O[C@@H]5OC[C@@H](O[C@@H]6OC[C@@H](O[C@@H]7OC[C@@H](O)[C@H](O)[C@H]7O)[C@H](O)[C@H]6O)[C@H](O)[C@H]5O)[C@H](O)[C@H]4O)[C@H](O)[C@H]3O)[C@H](O)[C@H]2O)[C@H](O)[C@H]1O (some centres unmarked) [Xyloheptaose] | 7.43 × 10^3 | 5.76 × 10^3 | – |
| OC1OC[C@@H](O[C@@H]2OC[C@@H](O[C@@H]3OC[C@@H](O[C@@H]4OC[C@@H](O)[C@H](O)[C@H]4O)[C@H](O)[C@H]3O)[C@H](O)[C@H]2O)[C@H](O)[C@H]1O (some centres unmarked) [Xylotetraose] | 2.97 × 10^3 | – | – |
| OC1OC[C@@H](O[C@@H]2OC[C@@H](O[C@@H]3OC[C@@H](O)[C@H](O)[C@H]3O)[C@H](O)[C@H]2O)[C@H](O)[C@H]1O (some centres unmarked) [Xylotriose] | > 1.0 × 10^3 | – | – |
| Xylohexaose (xyl)5 | – | – | 3.44 × 10^3 |
